Measurements published in PubChem BioAssay (NCI).
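These data come from cells grown in 96-well plates and exposed to compound for 48 hours at five concentrations. The concentration for 50% growth inhibition is given as GI50. Definition used: TGI = concentration required for complete inhibition of growth.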

Experiments:
Test in all cases: inhibition of tumour cell growth, NCI panel, 48 h
LOX IMVI melanoma = test system: LOX IMVI melanoma
NCI-H460 lung = test system: NCI-H460 lung
SK-MEL-28 melanoma = test system: SK-MEL-28 melanoma
NCI/ADR-RES ovarian = test system: NCI/ADR-RES ovarian
HOP-92 NSCLC = test system: HOP-92 NSCLC
OVCAR-8 ovarian = test system: OVCAR-8 ovarian
UACC-257 melanoma = test system: UACC-257 melanoma
HCT-116 colon = test system: HCT-116 colon
T-47D breast = test system: T-47D breast
UACC-62 melanoma = test system: UACC-62 melanoma

Cc1ccccc1C(=O)N/N=C/c1ccc(Sc2nccn2C)c([N+](=O)[O-])c1
TGI (LOX IMVI melanoma): > 100 µM
TGI (NCI-H460 lung): > 100 µM
TGI (SK-MEL-28 melanoma): > 100 µM
TGI (NCI/ADR-RES ovarian): > 100 µM
TGI (HOP-92 NSCLC): 88.2 µM
TGI (OVCAR-8 ovarian): > 100 µM
TGI (UACC-257 melanoma): > 100 µM
TGI (HCT-116 colon): > 100 µM
TGI (T-47D breast): > 100 µM
TGI (UACC-62 melanoma): > 100 µM

CN(C)CC(CC1=C(CC(CN(C)C)N(C)C)CCC1)N(C)C (stereo unspecified)
TGI (LOX IMVI melanoma): > 100 µM
TGI (NCI-H460 lung): > 100 µM
TGI (SK-MEL-28 melanoma): > 100 µM
TGI (NCI/ADR-RES ovarian): > 100 µM
TGI (HOP-92 NSCLC): > 100 µM
TGI (OVCAR-8 ovarian): > 100 µM
TGI (UACC-257 melanoma): > 100 µM
TGI (HCT-116 colon): > 100 µM
TGI (UACC-62 melanoma): > 100 µM

CCOC(=O)C(NC(=O)c1ccco1)(Nc1nc2ccc(OCC)cc2s1)C(F)(F)F (stereo unspecified)
TGI (NCI-H460 lung): > 100 µM
TGI (SK-MEL-28 melanoma): > 100 µM
TGI (NCI/ADR-RES ovarian): > 100 µM
TGI (HOP-92 NSCLC): 47.5 µM
TGI (OVCAR-8 ovarian): > 100 µM
TGI (UACC-257 melanoma): 76.1 µM
TGI (HCT-116 colon): 91.2 µM
TGI (T-47D breast): > 100 µM
TGI (UACC-62 melanoma): > 100 µM

CNC(=O)OCc1c(CO)nc(SC)n1C
TGI (LOX IMVI melanoma): > 100 µM
TGI (NCI-H460 lung): > 100 µM
TGI (SK-MEL-28 melanoma): > 100 µM
TGI (NCI/ADR-RES ovarian): > 100 µM
TGI (HOP-92 NSCLC): > 100 µM
TGI (OVCAR-8 ovarian): > 100 µM
TGI (UACC-257 melanoma): > 100 µM
TGI (HCT-116 colon): > 100 µM
TGI (UACC-62 melanoma): > 100 µM

CC1=NN(c2cccc(Cl)c2)C2(SCC(=O)N2c2nc3ccccc3s2)/C1=C\c1cccs1 (stereo unspecified)
TGI (LOX IMVI melanoma): 66.5 µM
TGI (NCI-H460 lung): 69.1 µM
TGI (SK-MEL-28 melanoma): 85.6 µM
TGI (NCI/ADR-RES ovarian): 48.9 µM
TGI (HOP-92 NSCLC): 53.6 µM
TGI (OVCAR-8 ovarian): 51.8 µM
TGI (UACC-257 melanoma): 64 µM
TGI (HCT-116 colon): 52.1 µM
TGI (T-47D breast): > 100 µM

CCN(CC(=O)O)C(=O)c1cccnc1
TGI (LOX IMVI melanoma): > 100 µM
TGI (NCI-H460 lung): > 100 µM
TGI (SK-MEL-28 melanoma): > 100 µM
TGI (NCI/ADR-RES ovarian): > 100 µM
TGI (HOP-92 NSCLC): > 100 µM
TGI (OVCAR-8 ovarian): > 100 µM
TGI (UACC-257 melanoma): > 100 µM
TGI (HCT-116 colon): > 100 µM
TGI (T-47D breast): > 100 µM
TGI (UACC-62 melanoma): > 100 µM

C(=N\NC1=NCCN1)/c1ccc(-c2cn3cc(/C=N/NC4=NCCN4)ccc3n2)cc1
TGI (LOX IMVI melanoma): > 52.5 µM
TGI (NCI-H460 lung): > 45.8 µM
TGI (NCI/ADR-RES ovarian): > 100 µM
TGI (HOP-92 NSCLC): 43.2 µM
TGI (OVCAR-8 ovarian): > 55 µM
TGI (UACC-257 melanoma): > 100 µM
TGI (HCT-116 colon): > 62.4 µM
TGI (T-47D breast): > 100 µM
TGI (UACC-62 melanoma): > 100 µM

Fc1ccc(C(OCCN2CCC3CCC(C2)N3C/C=C/c2ccco2)c2ccc(F)cc2)cc1 (stereo unspecified)
TGI (LOX IMVI melanoma): 24.2 µM
TGI (NCI-H460 lung): 24.5 µM
TGI (SK-MEL-28 melanoma): 19.5 µM
TGI (NCI/ADR-RES ovarian): 22.4 µM
TGI (HOP-92 NSCLC): 19.1 µM
TGI (OVCAR-8 ovarian): 19.6 µM
TGI (UACC-257 melanoma): 17.4 µM
TGI (HCT-116 colon): 18.5 µM
TGI (T-47D breast): 20.8 µM
TGI (UACC-62 melanoma): 26.7 µM

CC(=O)C1=C(C)N(c2ccc(C)cc2)C2(O)C=CC(=O)C3C(=O)N(c4ccccc4)C(=O)C132 (stereo unspecified)
TGI (NCI-H460 lung): > 100 µM
TGI (SK-MEL-28 melanoma): 43.8 µM
TGI (NCI/ADR-RES ovarian): > 100 µM
TGI (HOP-92 NSCLC): 43.1 µM
TGI (OVCAR-8 ovarian): 59.2 µM
TGI (UACC-257 melanoma): 36.5 µM
TGI (HCT-116 colon): > 100 µM
TGI (T-47D breast): 54.6 µM
TGI (UACC-62 melanoma): 35.6 µM

CCC(C)C1=C(OC(C)=O)[N+]2([O-])Oc3ccc(-c4c(OC(C)=O)c(OC(C)=O)c(-c5ccc(OC(C)=O)cc5)c(OC(C)=O)c4OC(C)=O)cc3OC2(C(C)CC)C(=O)N1OC(C)=O (stereo unspecified)
TGI (LOX IMVI melanoma): 43.5 µM
TGI (NCI-H460 lung): > 50 µM
TGI (SK-MEL-28 melanoma): 44.7 µM
TGI (NCI/ADR-RES ovarian): > 50 µM
TGI (OVCAR-8 ovarian): > 50 µM
TGI (UACC-257 melanoma): > 50 µM
TGI (HCT-116 colon): 22.8 µM
TGI (T-47D breast): 24.8 µM
TGI (UACC-62 melanoma): 16.7 µM

Cc1nn(-c2ccccc2)c(C)c1/C=N/N=C1\SCC(=O)N1c1ccccc1
TGI (LOX IMVI melanoma): 48.1 µM
TGI (NCI-H460 lung): 60.2 µM
TGI (SK-MEL-28 melanoma): 67.9 µM
TGI (NCI/ADR-RES ovarian): 54.4 µM
TGI (OVCAR-8 ovarian): 55.1 µM
TGI (UACC-257 melanoma): 88.2 µM
TGI (HCT-116 colon): 36.5 µM
TGI (T-47D breast): > 100 µM
TGI (UACC-62 melanoma): 68.3 µM

COc1ccc2c(c1)[nH]c1c(/C=C/c3ccccc3)nccc12
TGI (LOX IMVI melanoma): 63.2 µM
TGI (NCI-H460 lung): 33.7 µM
TGI (SK-MEL-28 melanoma): 31.9 µM
TGI (NCI/ADR-RES ovarian): 37.9 µM
TGI (HOP-92 NSCLC): 44.4 µM
TGI (OVCAR-8 ovarian): 42.2 µM
TGI (UACC-257 melanoma): 31.1 µM
TGI (HCT-116 colon): 30.4 µM
TGI (T-47D breast): > 100 µM
TGI (UACC-62 melanoma): 28.9 µM

NC(=O)c1c(NC(=O)c2ccccn2)sc2c1CCC(=O)C2
GI50 (LOX IMVI melanoma): 3.72 µM
TGI (LOX IMVI melanoma): > 100 µM
GI50 (NCI-H460 lung): > 100 µM
TGI (NCI-H460 lung): > 100 µM
GI50 (HOP-92 NSCLC): 2.75 µM
TGI (HOP-92 NSCLC): > 100 µM
GI50 (OVCAR-8 ovarian): 3.45 µM
TGI (OVCAR-8 ovarian): > 100 µM
GI50 (HCT-116 colon): 3.5 µM
TGI (HCT-116 colon): > 100 µM
GI50 (T-47D breast): 2.48 µM
TGI (T-47D breast): > 100 µM
GI50 (UACC-62 melanoma): 2.52 µM
TGI (UACC-62 melanoma): 67.1 µM

COc1ccc(C(=O)/C=C/c2cccc([N+](=O)[O-])c2)c(OC)c1
GI50 (LOX IMVI melanoma): 0.895 µM
TGI (LOX IMVI melanoma): 1.94 µM
GI50 (NCI-H460 lung): 1.27 µM
TGI (NCI-H460 lung): 3.31 µM
GI50 (SK-MEL-28 melanoma): 4.75 µM
TGI (SK-MEL-28 melanoma): > 50 µM
GI50 (NCI/ADR-RES ovarian): 1.53 µM
TGI (NCI/ADR-RES ovarian): > 50 µM
GI50 (HOP-92 NSCLC): 3.92 µM
TGI (HOP-92 NSCLC): > 50 µM
GI50 (OVCAR-8 ovarian): 1.78 µM
TGI (OVCAR-8 ovarian): > 50 µM
GI50 (UACC-257 melanoma): > 50 µM
TGI (UACC-257 melanoma): > 50 µM
GI50 (HCT-116 colon): 0.767 µM
TGI (HCT-116 colon): 1.68 µM
GI50 (T-47D breast): 1.93 µM
TGI (T-47D breast): > 50 µM
GI50 (UACC-62 melanoma): 1.14 µM
TGI (UACC-62 melanoma): 2.79 µM

O=C(O)C1C2CCC(O2)C1C(=O)Nc1cccc2cccnc12 (stereo unspecified)
TGI (LOX IMVI melanoma): > 100 µM
TGI (NCI-H460 lung): > 100 µM
TGI (SK-MEL-28 melanoma): > 100 µM
TGI (NCI/ADR-RES ovarian): > 100 µM
TGI (UACC-257 melanoma): > 100 µM
TGI (HCT-116 colon): > 100 µM
TGI (T-47D breast): > 100 µM
TGI (UACC-62 melanoma): > 100 µM

O=C(c1cccs1)N(C(=S)OC12CC3CC(CC(C3)C1)C2)c1ccccc1
TGI (LOX IMVI melanoma): 92.9 µM
TGI (NCI-H460 lung): > 100 µM
TGI (SK-MEL-28 melanoma): > 100 µM
TGI (NCI/ADR-RES ovarian): > 100 µM
TGI (HOP-92 NSCLC): > 100 µM
TGI (OVCAR-8 ovarian): > 100 µM
TGI (UACC-257 melanoma): > 100 µM
TGI (HCT-116 colon): 59.3 µM
TGI (T-47D breast): > 100 µM
TGI (UACC-62 melanoma): 84.8 µM

O=c1cccccc1[O-].O=c1cccccc1[O-].[O]=[U+2]=[O]
TGI (LOX IMVI melanoma): 95 µM
TGI (NCI-H460 lung): > 100 µM
TGI (SK-MEL-28 melanoma): 61 µM
TGI (HOP-92 NSCLC): 70.6 µM
TGI (OVCAR-8 ovarian): 99.6 µM
TGI (UACC-257 melanoma): 68.5 µM
TGI (HCT-116 colon): 98.4 µM
TGI (UACC-62 melanoma): 41.6 µM

C[C@H](CCC(=O)O)[C@H]1CC[C@@]2(C)[C@@H]3C(=O)C[C@H]4C(C)(C)[C@@H](O)CC[C@]4(C)[C@H]3C(=O)C[C@]12C
TGI (LOX IMVI melanoma): > 100 µM
TGI (NCI-H460 lung): > 100 µM
TGI (SK-MEL-28 melanoma): > 100 µM
TGI (NCI/ADR-RES ovarian): > 100 µM
TGI (HOP-92 NSCLC): > 100 µM
TGI (OVCAR-8 ovarian): > 100 µM
TGI (UACC-257 melanoma): > 100 µM
TGI (HCT-116 colon): > 100 µM
TGI (T-47D breast): > 100 µM
TGI (UACC-62 melanoma): > 100 µM

Clc1cc2c(cc1Cl)CC(NCCN1CCCC1)CC2 (stereo unspecified)
TGI (LOX IMVI melanoma): 27.2 µM
TGI (NCI-H460 lung): 31.2 µM
TGI (SK-MEL-28 melanoma): 29.9 µM
TGI (NCI/ADR-RES ovarian): 27.8 µM
TGI (OVCAR-8 ovarian): 31.1 µM
TGI (UACC-257 melanoma): 21.3 µM
TGI (HCT-116 colon): 26.3 µM
TGI (T-47D breast): 25.5 µM
TGI (UACC-62 melanoma): 8.15 µM
